In PubChem BioAssay (NCI):
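Briefly, cells in 96-well plates were exposed to five compound concentrations for 48 h, and endpoints were estimated by linear interpolation. TGI: total growth inhibition.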

Key:
Assay in all cases: NCI-60 cell line screen, 48 h
786-0 renal = tested on: 786-0 renal
A498 renal = tested on: A498 renal
A549 NSCLC = tested on: A549 NSCLC
ACHN renal = tested on: ACHN renal
CAKI-1 renal = tested on: CAKI-1 renal
CCRF-CEM leukemia = tested on: CCRF-CEM leukemia
COLO 205 colon = tested on: COLO 205 colon
DLD-1 colon = tested on: DLD-1 colon
DMS 114 small cell lung = tested on: DMS 114 small cell lung
DMS 273 small cell lung = tested on: DMS 273 small cell lung
EKVX NSCLC = tested on: EKVX NSCLC
HCC-2998 colon = tested on: HCC-2998 colon
HCT-116 colon = tested on: HCT-116 colon
HCT-15 colon = tested on: HCT-15 colon
HL-60(TB) leukemia = tested on: HL-60(TB) leukemia
HOP-18 NSCLC = tested on: HOP-18 NSCLC
HOP-62 NSCLC = tested on: HOP-62 NSCLC
HOP-92 NSCLC = tested on: HOP-92 NSCLC
HT29 colon = tested on: HT29 colon
IGROV1 ovarian = tested on: IGROV1 ovarian
K-562 leukemia = tested on: K-562 leukemia
KM12 colon = tested on: KM12 colon
KM20L2 colon = tested on: KM20L2 colon
LOX IMVI melanoma = tested on: LOX IMVI melanoma
LXFL 529 NSCLC = tested on: LXFL 529 NSCLC
M14 melanoma = tested on: M14 melanoma
M19-MEL melanoma = tested on: M19-MEL melanoma
MALME-3M melanoma = tested on: MALME-3M melanoma
MOLT-4 leukemia = tested on: MOLT-4 leukemia
NCI-H226 lung = tested on: NCI-H226 lung
NCI-H23 lung = tested on: NCI-H23 lung
NCI-H460 lung = tested on: NCI-H460 lung
NCI-H522 lung = tested on: NCI-H522 lung
OVCAR-3 ovarian = tested on: OVCAR-3 ovarian
OVCAR-4 ovarian = tested on: OVCAR-4 ovarian
OVCAR-5 ovarian = tested on: OVCAR-5 ovarian
OVCAR-8 ovarian = tested on: OVCAR-8 ovarian
RPMI-8226 leukemia = tested on: RPMI-8226 leukemia
RXF 393 renal = tested on: RXF 393 renal
SF-268 CNS = tested on: SF-268 CNS
SF-295 CNS = tested on: SF-295 CNS
SF-539 CNS = tested on: SF-539 CNS
SK-MEL-2 melanoma = tested on: SK-MEL-2 melanoma
SK-MEL-28 melanoma = tested on: SK-MEL-28 melanoma
SK-MEL-5 melanoma = tested on: SK-MEL-5 melanoma
SK-OV-3 ovarian = tested on: SK-OV-3 ovarian
SN12C renal = tested on: SN12C renal
SNB-19 CNS = tested on: SNB-19 CNS
SNB-75 CNS = tested on: SNB-75 CNS
SNB-78 CNS = tested on: SNB-78 CNS
SR leukemia = tested on: SR leukemia
SW-620 colon = tested on: SW-620 colon
TK-10 renal = tested on: TK-10 renal
U251 CNS = tested on: U251 CNS
UACC-257 melanoma = tested on: UACC-257 melanoma
UACC-62 melanoma = tested on: UACC-62 melanoma
UO-31 renal = tested on: UO-31 renal
XF 498 CNS = tested on: XF 498 CNS

## C/C(=N/N)c1sc(-c2nc(C)c(/C(C)=N\N)s2)nc1C
786-0 renal
  TGI: > 100 µM
A498 renal
  TGI: > 100 µM
A549 NSCLC
  TGI: > 100 µM
ACHN renal
  TGI: > 100 µM
CAKI-1 renal
  TGI: > 100 µM
CCRF-CEM leukemia
  TGI: > 76.7 µM
COLO 205 colon
  TGI: > 68.9 µM
DLD-1 colon
  TGI: > 100 µM
DMS 114 small cell lung
  TGI: > 63.8 µM
DMS 273 small cell lung
  TGI: > 58.8 µM
EKVX NSCLC
  TGI: > 100 µM
HCC-2998 colon
  TGI: > 100 µM
HCT-116 colon
  TGI: > 100 µM
HCT-15 colon
  TGI: > 60.8 µM
HL-60(TB) leukemia
  TGI: > 69.3 µM
HOP-18 NSCLC
  TGI: > 100 µM
HOP-62 NSCLC
  TGI: > 100 µM
HOP-92 NSCLC
  TGI: > 100 µM
HT29 colon
  TGI: > 100 µM
IGROV1 ovarian
  TGI: > 100 µM
K-562 leukemia
  TGI: > 100 µM
KM12 colon
  TGI: > 100 µM
KM20L2 colon
  TGI: > 100 µM
LOX IMVI melanoma
  TGI: > 75.2 µM
LXFL 529 NSCLC
  TGI: > 100 µM
M14 melanoma
  TGI: > 100 µM
M19-MEL melanoma
  TGI: > 100 µM
MALME-3M melanoma
  TGI: > 100 µM
MOLT-4 leukemia
  TGI: 83.3 µM
NCI-H226 lung
  TGI: > 100 µM
NCI-H23 lung
  TGI: > 100 µM
NCI-H460 lung
  TGI: > 100 µM
NCI-H522 lung
  TGI: > 100 µM
OVCAR-3 ovarian
  TGI: > 100 µM
OVCAR-4 ovarian
  TGI: > 100 µM
OVCAR-5 ovarian
  TGI: > 100 µM
OVCAR-8 ovarian
  TGI: > 100 µM
RPMI-8226 leukemia
  TGI: > 63.9 µM
RXF 393 renal
  TGI: > 100 µM
SF-268 CNS
  TGI: > 100 µM
SF-295 CNS
  TGI: > 100 µM
SF-539 CNS
  TGI: > 100 µM
SK-MEL-2 melanoma
  TGI: > 100 µM
SK-MEL-28 melanoma
  TGI: > 100 µM
SK-MEL-5 melanoma
  TGI: > 100 µM
SK-OV-3 ovarian
  TGI: > 100 µM
SN12C renal
  TGI: > 100 µM
SNB-19 CNS
  TGI: > 100 µM
SNB-75 CNS
  TGI: > 100 µM
SNB-78 CNS
  TGI: > 100 µM
SR leukemia
  TGI: 36.4 µM
SW-620 colon
  TGI: > 100 µM
TK-10 renal
  TGI: > 100 µM
U251 CNS
  TGI: > 100 µM
UACC-257 melanoma
  TGI: > 100 µM
UACC-62 melanoma
  TGI: > 100 µM
UO-31 renal
  TGI: > 100 µM
XF 498 CNS
  TGI: > 100 µM
